Patent US9023767B2, “γ-Secretase substrates and methods of use” (Memorial Sloan-Kettering Cancer Center, priority 2009, dated 2015)

How the values were obtained:
γ-secretase [1] = target: T1, γ-secretase (Homo sapiens (Human), UniProt P49768+Q92542); test: In vitro γ-secretase assay, HeLa membrane, APP-derived substrates, ECL detection; assay type: biochemical; conditions: S4 substrate
Method: The recombinant proteins were incubated with γ-secretase (40 μg/ml) in the presence or absence of 1 μM γ-secretase inhibitor L-685,458 (CAS [292632-98-5], shown below). The reaction mixture contains 0.25% 3[(3-cholamidopropyl) dimethylammonio]-2-hydroxypropanesulfonic acid (CHAPSO), 0.1 μg/μl BSA, protease inhibitor, 50 mM PIPES, pH 7.0, 5 mM MgCl2, 5 mM CaCl2 and 150 mM KCl. The reaction was incubated for 2.5 hr at 37° C. and stopped by adding RIPA buffer (150 mM NaCl, 1.0% NP-40, 0.5% sodium
[drawing 1] deoxycholate, 0.1% SDS, 50 mM Tris HCl, pH 8.0). The products were detected with various antibody combinations as previously described (Lai et al., 2003; J. Biol. Chem., 278: 22475-22481; Li et al., 2000, Proc. Natl. Acad. Sci. USA, 97: 6138-6143; Yin et al., 2007, J. Biol. Chem., 282:23639-23644) using electrochemiluminescence (ECL). The amount of product was determined using synthetic peptide or recombinant standards. The Km and Vmax were determined from the Michaelis-Menten equation Michaelis-Menten Kinetics (ν=Vm[S]/([…]; ν: initial rate; Vm: maximum velocity; Km: the Michaelis-Menten constant, S: substrate). P-values were calculated from Student t-test. 7.1.5 Cell-Based Aβ Production Assay and Western Blot

γ-secretase [2] = target: T2, γ-secretase (Homo sapiens (Human), UniProt P49768); test: HTRF γ-secretase assay with Sb4 substrate; assay type: biochemical; conditions: 384-well, 2% DMSO; read-out: IC50, HTRF assay
Excerpt: We set out to transfer the assay conditions obtained with the ECL method to an HTRF detection based format (FIG. 10b). The HTRF detection mixture consisted of mouse G2-10 antibody for recognition of the C-terminal epitope of the cleaved product, a Europium-labeled anti-mouse antibody (commonly, an antibody is conjugated with a cryptate ligand that forms a three dimensional coordination cage structure surrounding a lanthanide such as Eu^3+), along with Streptavidin conjugated to a trimeric form of the fluorescent protein allophycocyanin referred to as XL665. Cleavage of Sb4 substrate allows G2-10 mouse antibody to bind to the Aβ40-processed site on the cleaved substrate. The Steptavidin-XL665 conjugate binds directly with the biotin moiety on the N-terminal end of the Sb4 derived product. The anti-mouse Europium antibody targets to the G2-10 antibody, bringing all of these entities into close proximity. The Europium and XL665 reagents are a compatible pair of donor-acceptor fluorophores, and excitation of Europium at 337 nm results in fluorescence energy resonance transfer (FRET) to XL665 which fluoresces at 665 nm (FIG. 10b).
Human γ-secretase was prepared from HeLa cell membranes as described previously (Li et al., 2000). Briefly, HeLa cell pellet was resuspended in 1×MES buffer (50 mM MES, pH 6.0, 150 mM KCl, 5 mM CaCl2, 5 mM MgCl2) and treated with ‘complete’ protease inhibitor (Boehringer Mannheim). The resuspended pellet was mechanically homogenized by passing the cells through the French Press (Spectronic Instruments), and subsequently spun down at 800 g to remove cell debris and nuclei. Next, the supernatants were spun at 100,000 g in order to pellet the membranes. The pelleted membranes were resuspended in 1×MES buffer to approximately 12 mg/ml. This entire procedure was performed at 4° C. HeLa membranes were solubilized using 1% CHAPSO detergent in 1×MES buffer with protease inhibitors. After incubating for 1 hr at 4° C., the membrane was spun down at 100,000 g and the supernatants were collected and stored at −70° C. The collected fraction is defined as solubilized γ-secretase.
HTRF conditions were initially optimized in a 384-well format using a final volume of 20 μl. The high control for this assay was defined as the observed γ-secretase activity in the presence of 1% DMSO (v/v) and the low control as the activity observed when including 100 nM final concentration of Compound E (v/v). First, we determined a tolerable DMSO concentration that would not interfere with γ-secretase activity. Even with 3% DMSO (v/v) present in the assay mixture, there was virtually no effect on the γ-secretase activity (FIG. 11a), which was critical as delivery of library screening compounds required a final concentration of 2% DMSO (v/v) in the γ-secretase reaction. Next, we titrated the HTRF mixture components in an effort to minimize reagent costs for use in high throughput screening. […] Additionally, we varied Europium conjugated anti-mouse antibody and determined that 1 nM of this reagent in the HTRF mixture was sufficient for our assay conditions even though the signal continued to increase with higher concentrations of the anti-mouse antibody (FIG. 11c).
We have further miniaturized the HTRF assay from the established 384-well format to a 1536-well platform enabling more efficient screening of large chemical libraries. […] Based on these optimization experiments, we set our final assay conditions at 0.3 nM G2-10, 1 nM anti-mouse antibody, 15 nM Streptavidin-XL665, and proceeded with the assay at 10 μl final volume (5 μl γ-secretase mix+5 μl HTRF mix) in the 1536-well format for screening.
The pilot assay was performed in duplicate on two separate days to account for any day-to-day variability. […]

γ-secretase [3] = target: T1, γ-secretase; test: Photoaffinity labeling of γ-secretase in HeLa membrane by Aβ17-23BPA20-biotin; assay type: binding; conditions: inhibitor at 2 μM
Method: FIG. 4. […] Various concentrations of inhibitor were incubated with APP substrate (S4) or Notch peptide substrate containing the C-terminal biotinylated transmembrane domain of Notch1 and HeLa cell membrane in the presence of 0.25% CHAPSO. Aβ40 was detected by G2-10 antibody. The cleaved Notch product was detected by Val1744 antibody that specifically recognizes the cleaved product between Gly1743 and Val1744. Activities are expressed as percentage relative to reading that was produced in DMSO control. […] Various concentrations of S4 substrate were incubated with HeLa membrane in fixed concentrations of inhibitor as indicated. The double reciprocal velocity (1/v) and substrate concentrations (1/S) are plotted to determine the type of inhibition. […] Assays were conducted as described in FIG. 4A. […] The labeled samples were solubilized with RIPA buffer. Biotinylated proteins were captured with streptavidin-agarose and probed by immunoblotting using antibodies against biotin, PS1-CTF, PS1-NTF, Nicastrin, PEN-2 and APH-1a. HeLa cell membrane proteins were directly loaded onto lanes indicated by an arrow in the PEN-2 and APH-1a blots as positive controls. […] Upper panel: PS1-NTF; Lower panel: PS1-CTF.
The labeled proteins were eluted with 2×SDS sample buffer and analyzed with Western blotting using antibodies against the components of γ-secretase complex. Protein concentration was determined with the Dc protein assay kit (Bio-Rad)
After the photolyzed membranes were solubilized, biotinylated proteins were captured, eluted and analyzed by western blotting with antibodies against biotin, PS1, nicastrin, PEN-2 and APH-1.

γ-secretase [4] = target: T2, γ-secretase; test: Notch1 processing in ΔE-Notch1 transfected HEK293 cells, NICD Western blot; assay type: cell-based; conditions: 2 μM, 48 hrs
Method: FIG. 5. […] The conditioned media were collected and secreted Aβ40 was measured with 6E10/G2-10 antibodies (mean±SEM; n=3). The activities of the peptide treatments were normalized to the DMSO treatment. […] The same experiments were performed as FIG. 5c. The cell lysates were analyzed by CT-15 antibody. Upper panel: full length APP. Lower panel: CTFs. […] The ΔE-Notch1 (a Notch construct with deletion of the extracellular portion and tagged by Myc) was transfected into HEK293 cells.

A20 mouse lymphoma cells = test: Lymphoma cell proliferation assay, [3H]thymidine incorporation; assay type: cell-based; conditions: 48 hours
Method: For a lymphoma cell proliferation assay, A20 mouse lymphoma cells were seeded in a 96-well plate at a concentration of 5×10^5 cells/ml in 100 μl RPMI media containing 2% fetal bovine serum. An additional 100 μl of media containing DMSO or γ-secretase inhibitor was added and incubated for 48 hours at 37° C. After this incubation, the cells were incubated for 5 hours with 2 μCi/ml [^3H]thymidine at 37° C. Proliferative response was then evaluated by harvesting the tritiated DNA from cells using a Skatron cell harvester and proliferation assessed as a function of [^3H]thymidine incorporation measured on a β-counter.

type of inhibition (Lineweaver-Burk) (γ-secretase [1]): competitive inhibition
IC50 (γ-secretase [2]): 1.4 nM
block of photo-crosslinking of PS1-CTF and PS1-NTF by Aβ17-23BPA20-biotin (γ-secretase [3]): completely blocked
production of NICD (γ-secretase [4]): NICD was not detected
Compound: CC(C)C[C@H](NC(=O)[C@H](Cc1ccccc1)C[C@@H](O)[C@H](Cc1ccccc1)NC(=O)OC(C)(C)C)C(=O)N[C@@H](Cc1ccccc1)C(N)=O [L-685,458]
inhibition of cellular proliferation (A20 mouse lymphoma cells): able to inhibit cellular proliferation
